Eight molecules from EP3345917A1, “ANTIPROTOZOAL COMPOUNDS” (Bacoba AG, priority 2017, dated 2018) can be followed below.

Non-standard residues stand in square brackets, D forms with d. Residues, ends and D or L forms follow the SMILES beside them. *: point of attachment. Benzenesulfonyl(4-F) = O=S(=O)(c1ccc(F)cc1)*; NH((S)CH(Me)CH2NMe2) = C[C@@H](CN(C)C)N*; Gly(octyl) = CCCCCCCC[C@H](N)C(=O)O; hCha = N[C@@H](CCC1CCCCC1)C(=O)O; X5 = CN(C)[C@H]1CCCC[C@@H]1N*; NH(CH2)3NMe2 = CN(C)CCCN*; X8 = C[C@@H](CN1CCCCC1)N*; Hexanoyl = CCCCCC(=O)*; Aib = CC(C)(N)C(=O)O; X7 = CN(C)CC(C)(C)N*; X6 = CCCN(CCC)CCN*; X9 = c1ccn(CCN*)c1; βAla = NCCC(=O)O

For data set [1], the system named is Trypanosoma brucei rhodesiense (STIB 900 strain). Nature of the data set: Alamar Blue assay against Trypanosoma brucei rhodesiense grown in axenic medium. The data set is classed as cell-based. Conditions: In vitro inhibition, read-out: T.b.rhod. The essentials:
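T. b. rhodesiense STIB 900 cultured in axenic medium and exposed to samples in an Alamar Blue viability assay, run in triplicate. IC50 calculated from the readout; melarsoprol served as reference drug.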
(Alamar Blue is a resazurin reagent that responds to reducing activity.)

The subject of data set [2] is Trypanosoma cruzi trypomastigote forms (Tulahuen strain). Nature of the data set: Intracellular Trypanosoma cruzi assay in L6-cells, beta-galactosidase/CPRG readout. The format is cell-based. Conditions: In vitro inhibition, read-out: T.cruzi. The essentials: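 L6 rat myoblasts infected with Tulahuen C2C4 LacZ T. cruzi; after incubation, CPRG/Nonidet substrate added and colour developed 2–6 h. Absorbance at 540 nm; IC50 calculated; triplicate tests.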

Data set [3] relates to Axenically grown Leishmania donovani amastigotes (strain MHOM/ET/67/L82). The data set can be described thus: Axenic Leishmania donovani amastigote resazurin assay. The format is cell-based. Conditions: In vitro inhibition, read-out: L.don. ax. The essentials:
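Strain MHOM/ET/67/L82 amastigotes grown axenically and tested in triplicate by resazurin assay. Plates developed 2-4 hours, fluorescence read at 536 nm excitation/588 nm emission and expressed as percentage of negative control.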

The subject of data set [4] is intracellular Leishmania donovani (L.don. InMac). Nature of the data set: Intracellular Leishmania donovani assay (L.don. InMac). The format is cell-based. To be noted: In vitro inhibition. The source says: (§1) Tests were done in triplicate.
The test system of a further data set is Plasmodium falciparum. Nature of the data set: 3H-hypoxanthine incorporation assay against Plasmodium falciparum. The format is cell-based. Conditions: In vitro inhibition, read-out: P.falc NF5. As for the experimental part: as §1
IC50 values were calculated by linear interpolation.

Data set [5] in a line: Cytotoxicity assay on L6-cells (Alamar Blue). Conditions: rat, Cytotox L6, Cytotoxicity against rat myoblast cells (L6).

In the case of `CCCCCCCC[C@H](NC(=O)[C@@H]1CCCN1C(=O)CCCCC)C(=O)N[C@@H](CC(C)C)C(=O)NC(C)(C)C(=O)N[C@@H](CC(C)C)C(=O)N[C@@H](CC(C)C)C(=O)NC(C)(C)C(=O)NC(C)(C)C(=O)NCCC(=O)N[C@H]1CCCC[C@@H]1N(C)C` [Compound 5883, (2S)-N-[(1S)-1-[(1-{[(1S)-1-{[(1S)-1-{[1-({1-[(2-{[(1S,2S)-2-(dimethylamino)cyclohexyl]carbamoyl}ethyl)carbamoyl]-1-methylethyl}carbamoyl)-1-methylethyl]carbamoyl}-3-methylbutyl]carbamoyl}-3-methylbutyl]carbamoyl}-1-methylethyl)carbamoyl]-3-methylbutyl]-2-{[(2S)-1-hexanoylpyrrolidin-2-yl]formamido}decanamide] (Hexanoyl-P[Gly(octyl)]L[Aib]LL[Aib][Aib][βAla]-X5), the IC50 stood at 41300 nM in data set [1]; 460 nM in data set [2]; 19800 nM in data set [3]; 131 nM in data set [4]; 25300 nM with Plasmodium falciparum. This molecule also displayed an IC50 at 70 h in data set [5] of 1480 nM.

Turning to `CCCCCCCC[C@H](NC(=O)[C@@H]1CCCN1C(=O)CCCCC)C(=O)N[C@@H](CC(C)C)C(=O)NC(C)(C)C(=O)N[C@@H](CC(C)C)C(=O)N[C@@H](CC(C)C)C(=O)NC(C)(C)C(=O)NC(C)(C)C(=O)NCCC(=O)N[C@@H](C)CN1CCCCC1` [Compound 5886, (2S)-2-{[(2S)-1-hexanoylpyrrolidin-2-yl]formamido}-N-[(1S)-3-methyl-1-[(1-methyl-1-{[(1S)-3-methyl-1-{[(1S)-3-methyl-1-{[1-methyl-1-({1-methyl-1-[(2-{[(2S)-1-(piperidin-1-yl)propan-2-yl]carbamoyl}ethyl)carbamoyl]ethyl}carbamoyl)ethyl]carbamoyl}butyl]carbamoyl}butyl]carbamoyl}ethyl)carbamoyl]butyl]decanamide] (Hexanoyl-P[Gly(octyl)]L[Aib]LL[Aib][Aib][βAla]-X8), the IC50 in data set [1] stood at 496 nM; in data set [2], 4260 nM; in data set [3] it was 190 nM; in data set [4], 602 nM; with Plasmodium falciparum, 36100 nM. The molecule further returned an IC50 at 70 h in data set [5] of 938 nM.

Take `CCCCCCCC[C@H](NC(=O)[C@@H]1CCCN1C(=O)CCCCC)C(=O)N[C@@H](CC(C)C)C(=O)NC(C)(C)C(=O)N[C@@H](CC(C)C)C(=O)N[C@@H](CC(C)C)C(=O)NC(C)(C)C(=O)NC(C)(C)C(=O)NCCC(=O)NCCn1cccc1` [Compound 5887, (2S)-2-{[(2S)-1-hexanoylpyrrolidin-2-yl]formamido}-N-[(1S)-3-methyl-1-[(1-methyl-1-{[(1S)-3-methyl-1-{[(1S)-3-methyl-1-{[1-methyl-1-({1-methyl-1-[(2-{[2-(1H-pyrrol-1-yl)ethyl]carbamoyl}ethyl)carbamoyl]ethyl}carbamoyl)ethyl]carbamoyl}butyl]carbamoyl}butyl]carbamoyl}ethyl)carbamoyl]butyl]decanamide] (Hexanoyl-P[Gly(octyl)]L[Aib]LL[Aib][Aib][βAla]-X9): the IC50 stood at 46800 nM in data set [1]; 262 nM in data set [2]; 35500 nM in data set [3]; 41.7 nM in data set [4]; 42700 nM with Plasmodium falciparum. For the same molecule, in data set [5], the IC50 at 70 h turned out to be 479 nM.

For the molecule `CCCCCCCC[C@H](NC(=O)[C@@H]1CCCN1C(=O)CCCCC)C(=O)N[C@@H](CC(C)C)C(=O)NC(C)(C)C(=O)N[C@@H](CC(C)C)C(=O)N[C@@H](CC(C)C)C(=O)NC(C)(C)C(=O)NC(C)(C)C(=O)NCCC(=O)NCCN(CCC)CCC` [Compound 5888, (2S)-N-[(1S)-1-[(1-{[(1S)-1-{[(1S)-1-{[1-({1-[(2-{[2-(dipropylamino)ethyl]carbamoyl}ethyl)carbamoyl]-1-methylethyl}carbamoyl)-1-methylethyl]carbamoyl}-3-methylbutyl]carbamoyl}-3-methylbutyl]carbamoyl}-1-methylethyl)carbamoyl]-3-methylbutyl]-2-{[(2S)-1-hexanoylpyrrolidin-2-yl]formamido}decanamide] (Hexanoyl-P[Gly(octyl)]L[Aib]LL[Aib][Aib][βAla]-X6), the IC50 came to 18000 nM in data set [1]; 37.5 nM in data set [2]; 22700 nM in data set [3]; 14.8 nM in data set [4]; 35900 nM with Plasmodium falciparum. For the same molecule, the IC50 at 70 h in data set [5] worked out at 446 nM.

Take `CCCCCCCC[C@H](NC(=O)[C@@H]1CCCN1C(=O)CCCCC)C(=O)N[C@@H](CC(C)C)C(=O)NC(C)(C)C(=O)N[C@@H](CC(C)C)C(=O)N[C@@H](CC(C)C)C(=O)NC(C)(C)C(=O)NC(C)(C)C(=O)NCCC(=O)NC(C)(C)CN(C)C` [Compound 5889, (2S)-N-[(1S)-1-[(1-{[(1S)-1-{[(1S)-1-{[1-({1-[(2-{[1-(dimethylamino)-2-methylpropan-2-yl]carbamoyl}ethyl)carbamoyl]-1-methylethyl}carbamoyl)-1-methylethyl]carbamoyl}-3-methylbutyl]carbamoyl}-3-methylbutyl]carbamoyl}-1-methylethyl)carbamoyl]-3-methylbutyl]-2-{[(2S)-1-hexanoylpyrrolidin-2-yl]formamido}decanamide] (Hexanoyl-P[Gly(octyl)]L[Aib]LL[Aib][Aib][βAla]-X7): the IC50 in data set [1] is 15.9 nM; in data set [2] it was 248 nM; in data set [3], 11100 nM; in data set [4], 86.5 nM; in the data set on Plasmodium falciparum it was 199 nM. For the same molecule, the IC50 at 70 h in data set [5] worked out at 959 nM.

Consider `CCCCCCCC[C@H](NC(=O)[C@@H]1CCCN1C(=O)CCCCC)C(=O)N[C@@H](CC(C)C)C(=O)NC(C)(C)C(=O)N[C@@H](CC(C)C)C(=O)N[C@@H](CC(C)C)C(=O)NC(C)(C)C(=O)NC(C)(C)C(=O)NCCC(=O)NCCCN(C)C` [Compound 5890, (2S)-N-[(1S)-1-[(1-{[(1S)-1-{[(1S)-1-{[1-({1-[(2-{[3-(dimethylamino)propyl]carbamoyl}ethyl)carbamoyl]-1-methylethyl}carbamoyl)-1-methylethyl]carbamoyl}-3-methylbutyl]carbamoyl}-3-methylbutyl]carbamoyl}-1-methylethyl)carbamoyl]-3-methylbutyl]-2-{[(2S)-1-hexanoylpyrrolidin-2-yl]formamido}decanamide] (Hexanoyl-P[Gly(octyl)]L[Aib]LL[Aib][Aib][βAla]-{NH(CH2)3NMe2}), for which the IC50 in data set [1] was determined as 44200 nM; in data set [2], 44 nM; in data set [3] it was 0.7 nM; in data set [4], 42500 nM; in the data set with Plasmodium falciparum, 0.2 nM. The molecule also gave an IC50 at 70 h in data set [5] of 592 nM.

On to `CCCCCCCC[C@H](NC(=O)[C@@H]1CCCN1S(=O)(=O)c1ccc(F)cc1)C(=O)N[C@@H](CC(C)C)C(=O)NC(C)(C)C(=O)N[C@@H](CC(C)C)C(=O)N[C@@H](CC(C)C)C(=O)NC(C)(C)C(=O)NC(C)(C)C(=O)NCCC(=O)N[C@@H](C)CN(C)C` [Compound 5935, (2S)-N-[(1S)-1-[(1-{[(1S)-1-{[(1S)-1-{[1-({1-[(2-{[(2S)-1-(dimethylamino)propan-2-yl]carbamoyl}ethyl)carbamoyl]-1-methylethyl}carbamoyl)-1-methylethyl]carbamoyl}-3-methylbutyl]carbamoyl}-3-methylbutyl]carbamoyl}-1-methylethyl)carbamoyl]-3-methylbutyl]-2-{[(2S)-1-(4-fluorobenzenesulfonyl)pyrrolidin-2-yl]formamido}decanamide] ({Benzenesulfonyl(4-F)}-P[Gly(octyl)]L[Aib]LL[Aib][Aib][βAla]-{NH((S)CH(Me)CH2NMe2)}), for which the IC50 was 42400 nM in data set [1]; 33.5 nM in data set [2]; 14500 nM in data set [3]; below 33.5 nM in data set [4]; 47300 nM in the data set on Plasmodium falciparum. This molecule yielded an IC50 at 70 h in data set [5] of 384 nM.

In the case of `CCCCCC(=O)N1CCC[C@H]1C(=O)N[C@@H](CCC1CCCCC1)C(=O)N[C@@H](CC(C)C)C(=O)NC(C)(C)C(=O)N[C@@H](CC(C)C)C(=O)N[C@@H](CC(C)C)C(=O)NC(C)(C)C(=O)NC(C)(C)C(=O)NCCC(=O)N[C@@H](C)CN(C)C` [Compound 5942, (2S)-2-[(2S)-4-cyclohexyl-2-{[(2S)-1-hexanoylpyrrolidin-2-yl]formamido}butanamido]-N-(1-{[(1S)-1-{[(1S)-1-{[1-({1-[(2-{[(2S)-1-(dimethylamino)propan-2-yl]carbamoyl}ethyl)carbamoyl]-1-methylethyl}carbamoyl)-1-methylethyl]carbamoyl}-3-methylbutyl]carbamoyl}-3-methylbutyl]carbamoyl}-1-methylethyl)-4-methylpentanamide] (Hexanoyl-P[hCha]L[Aib]LL[Aib][Aib][βAla]-{NH((S)CH(Me)CH2NMe2)}), the IC50 was 0.3 nM in data set [1]; 4 nM in data set [2]; 42600 nM in data set [3]; below 35.4 nM in data set [4]; 0.9 nM with Plasmodium falciparum. In data set [5], this molecule displayed an IC50 at 70 h of 148 nM.
